Molecular target: T1, human TRH-DE (Homo sapiens, UniProt Q9UKU6)
T1 construct: expressed in transfected cells; host or cells: Expi 293 cells (transient expression), membrane fraction
T1 sequence (Q9UKU6 1-1069): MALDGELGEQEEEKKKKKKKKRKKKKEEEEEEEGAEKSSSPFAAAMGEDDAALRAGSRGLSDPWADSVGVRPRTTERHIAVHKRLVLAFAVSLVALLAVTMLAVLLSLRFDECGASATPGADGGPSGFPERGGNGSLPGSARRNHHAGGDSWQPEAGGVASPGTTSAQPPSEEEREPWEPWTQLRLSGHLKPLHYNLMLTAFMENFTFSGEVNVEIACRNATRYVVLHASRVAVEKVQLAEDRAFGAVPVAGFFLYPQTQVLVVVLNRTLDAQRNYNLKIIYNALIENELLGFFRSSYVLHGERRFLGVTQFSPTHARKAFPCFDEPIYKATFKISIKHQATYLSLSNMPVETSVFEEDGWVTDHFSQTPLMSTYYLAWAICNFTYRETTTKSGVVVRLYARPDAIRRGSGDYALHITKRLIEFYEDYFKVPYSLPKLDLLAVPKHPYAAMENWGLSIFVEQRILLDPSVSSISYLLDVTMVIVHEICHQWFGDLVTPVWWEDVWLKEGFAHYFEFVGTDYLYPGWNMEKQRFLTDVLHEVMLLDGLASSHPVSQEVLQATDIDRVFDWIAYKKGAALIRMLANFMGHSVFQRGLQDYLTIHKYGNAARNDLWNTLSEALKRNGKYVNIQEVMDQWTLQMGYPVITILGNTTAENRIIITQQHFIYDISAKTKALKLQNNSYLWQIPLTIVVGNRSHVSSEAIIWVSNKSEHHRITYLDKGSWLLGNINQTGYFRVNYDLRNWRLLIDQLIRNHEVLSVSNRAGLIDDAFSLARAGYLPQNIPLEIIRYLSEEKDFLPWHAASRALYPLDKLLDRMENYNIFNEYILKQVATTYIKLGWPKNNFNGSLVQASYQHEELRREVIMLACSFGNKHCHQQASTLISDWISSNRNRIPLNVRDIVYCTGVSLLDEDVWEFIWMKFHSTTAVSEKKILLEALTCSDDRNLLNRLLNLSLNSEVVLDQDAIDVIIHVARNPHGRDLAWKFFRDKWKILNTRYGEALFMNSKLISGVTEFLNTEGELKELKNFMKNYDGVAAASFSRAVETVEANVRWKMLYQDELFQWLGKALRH
Assay: TRH-DE inhibition test (RapidFire MS measurement of product Cyclo (His-Pro))
Assay type: biochemical
Conditions: membrane fraction of Expi 293 cells expressing human TRH-DE; 10 μM TRH substrate; room temperature, 2 hours; 16-point concentration test
How it was run: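 Inhibition derived from product/internal-standard ratios of Cyclo(His-Pro), quantified by RapidFire triple-quadrupole MS after acetonitrile:methanol quench, with IC50 fitted over 16 concentrations. Enzyme source: membranes of Expi 293 cells transiently expressing human TRH-DE, 4 μg/ml, pH 7.4 phosphate buffer. Incubation with 10 μM substrate ran 2 h at room temperature.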

| Structure (SMILES) | IC50 |
| --- | --- |
| COc1ncc2c(n1)OC[C@@H](C)N(C1CC3(C1)CN(S(=O)(=O)c1ccccc1F)C3)C2=O [Example 370] | 8 nM |
| C[C@@H]1COc2nc(OC3CCC3)ncc2C(=O)N1C1CC2(C1)CN(S(=O)(=O)c1ccccc1F)C2 [Example 371] | 5 nM |
| C[C@@H]1COc2nc(OC3CCCC3)ncc2C(=O)N1C1CC2(C1)CN(S(=O)(=O)c1ccccc1F)C2 [Example 372] | 4 nM |
| C[C@@H]1COc2nc(OC3CC3)ncc2C(=O)N1C1CC2(C1)CN(S(=O)(=O)c1ccccc1F)C2 [Example 373] | 5 nM |
| CCOc1ncc2c(n1)OC[C@@H](C)N(C1CC3(C1)CN(S(=O)(=O)c1ccccc1F)C3)C2=O [Example 374] | 8 nM |
| C[C@@H]1COc2nc(OC3CCOCC3)ncc2C(=O)N1C1CC2(C1)CN(S(=O)(=O)c1ccccc1F)C2 [Example 375] | 11 nM |
| C[C@@H]1COc2nc(O[C@@H]3CCOC3)ncc2C(=O)N1C1CC2(C1)CN(S(=O)(=O)c1ccccc1F)C2 [Example 376] | 21 nM |
| C[C@@H]1COc2nc(O[C@H]3CCOC3)ncc2C(=O)N1C1CC2(C1)CN(S(=O)(=O)c1ccccc1F)C2 [Example 377] | 14 nM |
| C[C@@H]1COc2nc(N(C)C)ncc2C(=O)N1C1CC2(C1)CN(S(=O)(=O)c1ccccc1F)C2 [Example 380] | 3 nM |
| C[C@@H]1COc2nc(N3CCCC3)ncc2C(=O)N1C1CC2(C1)CN(S(=O)(=O)c1ccccc1F)C2 [Example 381] | 2 nM |
| C[C@@H]1COc2nc(N3CCCCC3)ncc2C(=O)N1C1CC2(C1)CN(S(=O)(=O)c1ccccc1F)C2 [Example 382] | 4 nM |
| C[C@@H]1COc2nc(N3CCOCC3)ncc2C(=O)N1C1CC2(C1)CN(S(=O)(=O)c1ccccc1F)C2 [Example 383] | 11 nM |
| C[C@@H]1COc2nc(N3CCCOCC3)ncc2C(=O)N1C1CC2(C1)CN(S(=O)(=O)c1ccccc1F)C2 [Example 384] | 5 nM |
| COC1CCN(c2ncc3c(n2)OC[C@@H](C)N(C2CC4(C2)CN(S(=O)(=O)c2ccccc2F)C4)C3=O)CC1 [Example 387] | 4 nM |
| C[C@@H]1COc2nc(N3C[C@H]4COC[C@H]4C3)ncc2C(=O)N1C1CC2(C1)CN(S(=O)(=O)c1ccccc1F)C2 [Example 388] | 4 nM |
| C[C@@H]1COc2nc(N3[C@@H]4CC[C@H]3COC4)ncc2C(=O)N1C1CC2(C1)CN(S(=O)(=O)c1ccccc1F)C2 [Example 389] | 12 nM |
| C[C@@H]1COc2nc(N3[C@@H]4CCC[C@H]3COC4)ncc2C(=O)N1C1CC2(C1)CN(S(=O)(=O)c1ccccc1F)C2 [Example 390] | 11 nM |
| C[C@@H]1COc2nc(N3CCOC(F)(F)C3)ncc2C(=O)N1C1CC2(C1)CN(S(=O)(=O)c1ccccc1F)C2 [Example 391] | 4 nM |
| C[C@@H]1COc2nc(N3[C@@H]4COC[C@H]3C4)ncc2C(=O)N1C1CC2(C1)CN(S(=O)(=O)c1ccccc1F)C2 [Example 392] | 3 nM |
| CO[C@H]1CCN(c2ncc3c(n2)OC[C@@H](C)N(C2CC4(C2)CN(S(=O)(=O)c2ccccc2F)C4)C3=O)C1 [Example 393] | 3 nM |
| CO[C@@H]1CCN(c2ncc3c(n2)OC[C@@H](C)N(C2CC4(C2)CN(S(=O)(=O)c2ccccc2F)C4)C3=O)C1 [Example 394] | 4 nM |
| C[C@@H]1COc2nc(N3CCC3)ncc2C(=O)N1C1CC2(C1)CN(S(=O)(=O)c1ccccc1F)C2 [Example 395] | 3 nM |
| C[C@@H]1COc2nc(N3C[C@H]4C[C@@H]3CO4)ncc2C(=O)N1C1CC2(C1)CN(S(=O)(=O)c1ccccc1F)C2 [Example 396] | 5 nM |
| C[C@@H]1COc2nc(N3C[C@@H]4C[C@H]3CO4)ncc2C(=O)N1C1CC2(C1)CN(S(=O)(=O)c1ccccc1F)C2 [Example 397] | 7 nM |

| Structure (SMILES) | IC50 |
| --- | --- |
| C[C@@H]1COc2nc(N3C[C@H]4C[C@@H](C3)O4)ncc2C(=O)N1C1CC2(C1)CN(S(=O)(=O)c1ccccc1F)C2 [Example 398] | 2 nM |
| C[C@@H]1COc2nc(N3CC(F)C3)ncc2C(=O)N1C1CC2(C1)CN(S(=O)(=O)c1ccccc1F)C2 [Example 399] | 5 nM |
| C[C@@H]1COc2nc(N3CC[C@H](C#N)C3)ncc2C(=O)N1C1CC2(C1)CN(S(=O)(=O)c1ccccc1F)C2 [Example 401] | 2 nM |
| C[C@@H]1COc2nc(N3CC[C@@H](C#N)C3)ncc2C(=O)N1C1CC2(C1)CN(S(=O)(=O)c1ccccc1F)C2 [Example 402] | 3 nM |
| C[C@@H]1COc2nc(N3C[C@H]4C[C@@H]3C4)ncc2C(=O)N1C1CC2(C1)CN(S(=O)(=O)c1ccccc1F)C2 [Example 403] | 3 nM |
| C[C@@H]1COc2nc(N3CC(C(F)(F)F)C3)ncc2C(=O)N1C1CC2(C1)CN(S(=O)(=O)c1ccccc1F)C2 [Example 404] | 4 nM |
| C[C@@H]1COc2nc(N3CC4(COC4)C3)ncc2C(=O)N1C1CC2(C1)CN(S(=O)(=O)c1ccccc1F)C2 [Example 407] | 5 nM |
| C[C@@H]1COc2nc(N3CC4(CCOC4)C3)ncc2C(=O)N1C1CC2(C1)CN(S(=O)(=O)c1ccccc1F)C2 [Example 408] | 4 nM |
| C[C@@H]1COc2nc(NC3CC3)ncc2C(=O)N1C1CC2(C1)CN(S(=O)(=O)c1ccccc1F)C2 [Example 409] | 4 nM |
| CC(C)Nc1ncc2c(n1)OC[C@@H](C)N(C1CC3(C1)CN(S(=O)(=O)c1ccccc1F)C3)C2=O [Example 410] | 5 nM |
| C[C@@H]1COc2nc(N3CC(C#N)C3)ncc2C(=O)N1C1CC2(C1)CN(S(=O)(=O)c1ccccc1F)C2 [Example 411] | 8 nM |
| C[C@@H]1COc2nc(N3C[C@H]4CC[C@@H](C3)O4)ncc2C(=O)N1C1CC2(C1)CN(S(=O)(=O)c1ccccc1F)C2 [Example 412] | 16 nM |
| Cc1ccsc1S(=O)(=O)N1CC2(CC(N3C(=O)c4cccnc4OCC3C)C2)C1 (centres unmarked) [Example 413] | 183 nM |
| CCCN(C(=O)c1cccnc1OC)C1CC2(C1)CN(S(=O)(=O)c1cccc(C)c1)C2 [Example 414, 2-methoxy-N-[2-(3-methylphenyl)sulfonyl-2-azaspiro[3.3]heptan-6-yl]-N-propylpyridine-3-carboxamide] | 618 nM |
| CCCN(C(=O)c1cccnc1OC)C1CC2(C1)CN(S(=O)(=O)c1cccs1)C2 [Example 415] | 847 nM |
| CCCN(C(=O)c1cccnc1OC)C1CC2(C1)CN(S(=O)(=O)c1ccccc1F)C2 [Example 416] | 676 nM |
| CCCN(C(=O)c1cccnc1OC)C1CC2(C1)CN(S(=O)(=O)c1sccc1C)C2 [Example 417] | 690 nM |
| CCCN(C(=O)c1cccnc1OC)C1CC2(C1)CN(S(=O)(=O)c1cc(C)ccc1F)C2 [Example 418] | 75 nM |
| CCCN(C(=O)c1cccnc1OC)C1CC2(C1)CN(S(=O)(=O)c1cccc(-c3ccccc3)c1)C2 [Example 419] | 685 nM |
| CCCN(C(=O)c1cccnc1OC)C1CC2(C1)CN(S(=O)(=O)c1cccc(C)c1F)C2 [Example 420] | 701 nM |
| CCCN(C(=O)c1cccnc1OC)C1CC2(C1)CN(S(=O)(=O)c1cc(OC)ccc1F)C2 [Example 421] | 480 nM |
| COCC1C(c2ccccc2)=CC(=O)N1C1CC2(C1)CN(S(=O)(=O)c1ccccc1F)C2 (centres unmarked) [Example 422] | 218 nM |
| CCCN(C(=O)c1cccnc1OC)C1CC2(C1)CN(S(=O)(=O)c1ccccc1)C2 [Example 423, N-[2-(benzenesulfonyl)-2-azaspiro[3.3]heptan-6-yl]-2-methoxy-N-propylpyridine-3-carboxamide] | 974 nM |

From patent publication US20260132127A1, “NOVEL SPIRO COMPOUND” (MITSUBISHI TANABE PHARMA CORPORATION, priority 2021, published 2026)
